Experimental data: PubChem BioAssay AID1963973 (Molecular Pharmacology Branch, DTP, NCI, 2024)

Test system: 883617-216-R-J1-PDC tumor spheroids, viability
Experiment: Anticancer human tumor 883617-216-R-J1-PDC patient-derived bladder carcinoma cell line growth inhibition [PI3K]
Details: spheroids with HUVEC and MSC; for IC50: curve of first compound; for viability, T/C: stronger effect = lower value
Method in brief: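 Viability of mixed-cell spheroids was determined after exposure to pairwise combinations, one partner being inavolisib, alpelisib, duvelisib or copanlisib. Highest tested concentration matched clinical Cmax where known and 10 microM where not, descending in half-log steps.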

[1] = second compound 0.0316 µM, first compound 0.0316 µM
[2] = second compound 0.0316 µM, first compound 0.1 µM
[3] = second compound 0.1 µM, first compound 0.0316 µM
[4] = second compound 0.1 µM, first compound 0.1 µM
[5] = second compound 0.316 µM, first compound 0.0316 µM
[6] = second compound 0.316 µM, first compound 0.1 µM
[7] = second compound 1 µM, first compound 0.0316 µM
[8] = second compound 1 µM, first compound 0.1 µM
[9] = second compound 3.16 µM, first compound 0.0316 µM
[10] = second compound 3.16 µM, first compound 0.1 µM
[11] = second compound 10 µM, first compound 0.0316 µM
[12] = second compound 10 µM, first compound 0.1 µM
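Note: spheroids exposed to agents for 7 days before the viability read.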

## CC(C)n1nc(-c2ccc3oc(N)nc3c2)c2c(N)ncnc21 + Cc1nc(NC(=O)N2CCCC2C(N)=O)sc1-c1ccnc(C(C)(C)C(F)(F)F)c1
Second compound 0.0316 µM
  IC50: 18.3 nM
Second compound 0.1 µM
  IC50: 12.6 nM
Second compound 0.316 µM
  IC50: 0.358 nM
Second compound 1 µM
  IC50: < 0.316 nM
Second compound 3.16 µM
  IC50: < 0.316 nM
Second compound 10 µM
  IC50: < 0.316 nM
Second compound 0.0316 µM, first compound 0.000316 µM
  viability, T/C: 79.6%
Second compound 0.0316 µM, first compound 0.001 µM
  viability, T/C: 72.5%
Second compound 0.0316 µM, first compound 0.00316 µM
  viability, T/C: 69.5%
Second compound 0.0316 µM, first compound 0.01 µM
  viability, T/C: 60.3%
[1]
  viability, T/C: 41.1%
[2]
  viability, T/C: 18.4%
Second compound 0.1 µM, first compound 0.000316 µM
  viability, T/C: 61.9%
Second compound 0.1 µM, first compound 0.001 µM
  viability, T/C: 66.6%
Second compound 0.1 µM, first compound 0.00316 µM
  viability, T/C: 62.1%
Second compound 0.1 µM, first compound 0.01 µM
  viability, T/C: 52.9%
[3]
  viability, T/C: 35.5%
[4]
  viability, T/C: 15.7%
Second compound 0.316 µM, first compound 0.000316 µM
  viability, T/C: 47.2%
Second compound 0.316 µM, first compound 0.001 µM
  viability, T/C: 54%
Second compound 0.316 µM, first compound 0.00316 µM
  viability, T/C: 45.2%
Second compound 0.316 µM, first compound 0.01 µM
  viability, T/C: 40.6%
[5]
  viability, T/C: 25.9%
[6]
  viability, T/C: 12.7%
Second compound 1 µM, first compound 0.000316 µM
  viability, T/C: 29.1%
Second compound 1 µM, first compound 0.001 µM
  viability, T/C: 24.7%
Second compound 1 µM, first compound 0.00316 µM
  viability, T/C: 38.1%
Second compound 1 µM, first compound 0.01 µM
  viability, T/C: 22.4%
[7]
  viability, T/C: 16.4%
[8]
  viability, T/C: 9.37%
Second compound 3.16 µM, first compound 0.000316 µM
  viability, T/C: 16%
Second compound 3.16 µM, first compound 0.001 µM
  viability, T/C: 15.7%
Second compound 3.16 µM, first compound 0.00316 µM
  viability, T/C: 12.4%
Second compound 3.16 µM, first compound 0.01 µM
  viability, T/C: 17.6%
[9]
  viability, T/C: 9.92%
[10]
  viability, T/C: 4.95%
Second compound 10 µM, first compound 0.000316 µM
  viability, T/C: 7.13%
Second compound 10 µM, first compound 0.001 µM
  viability, T/C: 7.02%
Second compound 10 µM, first compound 0.00316 µM
  viability, T/C: 8.33%
Second compound 10 µM, first compound 0.01 µM
  viability, T/C: 6.52%
[11]
  viability, T/C: 5.75%
[12]
  viability, T/C: 2.9%

## CCCS(=O)(=O)Nc1ccc(F)c(C(=O)c2c[nH]c3ncc(-c4ccc(Cl)cc4)cc23)c1F + Cc1nc(NC(=O)N2CCCC2C(N)=O)sc1-c1ccnc(C(C)(C)C(F)(F)F)c1
Second compound 0.0316 µM
  IC50: 4360 nM
Second compound 0.1 µM
  IC50: 4380 nM
Second compound 0.316 µM
  IC50: 858 nM
Second compound 1 µM
  IC50: < 31.6 nM
Second compound 3.16 µM
  IC50: < 31.6 nM
Second compound 10 µM
  IC50: < 31.6 nM
[1]
  viability, T/C: 75.6%
[2]
  viability, T/C: 83.1%
Second compound 0.0316 µM, first compound 0.316 µM
  viability, T/C: 88.1%
Second compound 0.0316 µM, first compound 1 µM
  viability, T/C: 92.9%
Second compound 0.0316 µM, first compound 3.16 µM
  viability, T/C: 66.4%
Second compound 0.0316 µM, first compound 10 µM
  viability, T/C: 7.45%
[3]
  viability, T/C: 84.8%
[4]
  viability, T/C: 78.3%
Second compound 0.1 µM, first compound 0.316 µM
  viability, T/C: 65%
Second compound 0.1 µM, first compound 1 µM
  viability, T/C: 74%
Second compound 0.1 µM, first compound 3.16 µM
  viability, T/C: 66%
Second compound 0.1 µM, first compound 10 µM
  viability, T/C: 9.98%
[5]
  viability, T/C: 53.6%
[6]
  viability, T/C: 55.1%
Second compound 0.316 µM, first compound 0.316 µM
  viability, T/C: 51.4%
Second compound 0.316 µM, first compound 1 µM
  viability, T/C: 49.2%
Second compound 0.316 µM, first compound 3.16 µM
  viability, T/C: 39.8%
Second compound 0.316 µM, first compound 10 µM
  viability, T/C: 10.4%
[7]
  viability, T/C: 33.3%
[8]
  viability, T/C: 26.5%
Second compound 1 µM, first compound 0.316 µM
  viability, T/C: 34.3%
Second compound 1 µM, first compound 1 µM
  viability, T/C: 39.8%
Second compound 1 µM, first compound 3.16 µM
  viability, T/C: 35.9%
Second compound 1 µM, first compound 10 µM
  viability, T/C: 7.76%
[9]
  viability, T/C: 16.6%
[10]
  viability, T/C: 16.3%
Second compound 3.16 µM, first compound 0.316 µM
  viability, T/C: 17.8%
Second compound 3.16 µM, first compound 1 µM
  viability, T/C: 19.3%
Second compound 3.16 µM, first compound 3.16 µM
  viability, T/C: 16.6%
Second compound 3.16 µM, first compound 10 µM
  viability, T/C: 7.14%
[11]
  viability, T/C: 7.33%
[12]
  viability, T/C: 7.82%
Second compound 10 µM, first compound 0.316 µM
  viability, T/C: 7.92%
Second compound 10 µM, first compound 1 µM
  viability, T/C: 10%
Second compound 10 µM, first compound 3.16 µM
  viability, T/C: 9.86%
Second compound 10 µM, first compound 10 µM
  viability, T/C: 4.55%
